In assay [1] the target is T1, Recombinant BTK^WT kinase (Homo sapiens, UniProt Q06187).
T1 construct: purchased Invitrogen
As to the kind of experiment: BTK WT binding affinity (LanthaScreen TR-FRET). To be noted: Kinase Tracer 236, 5 h incubation. The gist of the method:
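IC50 obtained by variable-slope fit of TR-FRET signal (ex 340 nm; em 615 and 665 nm) versus inhibitor concentration. Reaction held for 5 h in LanthaScreen Kinase Buffer A with 2.5 nM His-tagged BTK^WT, 15 nM Kinase Tracer 236 and 2 nM Eu anti-His antibody.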

A further assay concerns the target T2, Recombinant EGFR (Homo sapiens, UniProt P00533).
T2 construct: purchased Invitrogen
As to the kind of experiment: EGFR binding affinity (LanthaScreen TR-FRET). To be noted: Kinase Tracer 199, 5 h incubation. The gist of the method:
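Compounds were titrated against recombinant EGFR and binding was followed by LanthaScreen time-resolved FRET.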

Assay [2] has as its system OCI-Ly10 human DLBCL cells. The assay can be described thus: OCI-Ly10 anti-proliferative activity (Resazurin). Type of assay: cell-based. The following applies: OCI-Ly10 cells, 72 h compound treatment, Resazurin, read-out: Proliferation Assay OCI-Ly10-20% FBS. The gist of the method:
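A separate untreated plate gave the Day 0 reading, measured by Resazurin fluorescence at 590 nm after 5 h. The average Day 0 value was subtracted from each treated well, and results were expressed as percent of DMSO control. IC50 values came from a log[Inhibitor] vs response Variable Slope fit in Graphpad prism.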

Assay [3] has as its target T3, Recombinant BTK^C481S kinase (Homo sapiens, UniProt Q06187, C481S).
T3 construct: purchased SignalChem
As to the kind of experiment: BTK C481S binding affinity (LanthaScreen TR-FRET). The following applies: Kinase Tracer 236, 5 h incubation. The essentials: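 BTK C481S tracer-displacement TR-FRET: 5 nM His-tagged kinase, 2 nM Eu anti-His antibody and 30 nM Kinase Tracer 236 incubated with titrated inhibitor for 5 h in Kinase Buffer A. Read at 340 nm excitation, 615/665 nm emission; IC50 from variable-slope log[inhibitor]–response fit.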

Molecules are shown by their SMILES. Where two headings read alike, the source gives them in different places.

T1 sequence (Q06187 whole entry): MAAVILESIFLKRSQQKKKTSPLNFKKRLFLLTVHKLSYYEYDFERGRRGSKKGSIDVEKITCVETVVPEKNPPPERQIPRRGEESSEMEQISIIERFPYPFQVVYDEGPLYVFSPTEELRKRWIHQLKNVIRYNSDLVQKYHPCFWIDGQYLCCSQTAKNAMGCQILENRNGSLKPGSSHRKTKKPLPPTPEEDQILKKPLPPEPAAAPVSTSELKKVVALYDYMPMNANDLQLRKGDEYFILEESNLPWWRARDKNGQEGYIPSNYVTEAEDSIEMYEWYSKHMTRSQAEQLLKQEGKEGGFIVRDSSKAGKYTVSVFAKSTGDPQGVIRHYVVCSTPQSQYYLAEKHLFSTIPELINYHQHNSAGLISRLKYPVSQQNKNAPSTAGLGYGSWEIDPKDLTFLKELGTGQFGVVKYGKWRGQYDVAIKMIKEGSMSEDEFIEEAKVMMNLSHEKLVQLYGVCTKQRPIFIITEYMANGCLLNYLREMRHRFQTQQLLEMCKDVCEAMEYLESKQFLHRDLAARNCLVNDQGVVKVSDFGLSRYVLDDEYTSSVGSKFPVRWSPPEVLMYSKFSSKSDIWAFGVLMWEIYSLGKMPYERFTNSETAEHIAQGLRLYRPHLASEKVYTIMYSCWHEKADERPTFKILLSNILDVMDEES
T2 sequence (P00533 25-1210): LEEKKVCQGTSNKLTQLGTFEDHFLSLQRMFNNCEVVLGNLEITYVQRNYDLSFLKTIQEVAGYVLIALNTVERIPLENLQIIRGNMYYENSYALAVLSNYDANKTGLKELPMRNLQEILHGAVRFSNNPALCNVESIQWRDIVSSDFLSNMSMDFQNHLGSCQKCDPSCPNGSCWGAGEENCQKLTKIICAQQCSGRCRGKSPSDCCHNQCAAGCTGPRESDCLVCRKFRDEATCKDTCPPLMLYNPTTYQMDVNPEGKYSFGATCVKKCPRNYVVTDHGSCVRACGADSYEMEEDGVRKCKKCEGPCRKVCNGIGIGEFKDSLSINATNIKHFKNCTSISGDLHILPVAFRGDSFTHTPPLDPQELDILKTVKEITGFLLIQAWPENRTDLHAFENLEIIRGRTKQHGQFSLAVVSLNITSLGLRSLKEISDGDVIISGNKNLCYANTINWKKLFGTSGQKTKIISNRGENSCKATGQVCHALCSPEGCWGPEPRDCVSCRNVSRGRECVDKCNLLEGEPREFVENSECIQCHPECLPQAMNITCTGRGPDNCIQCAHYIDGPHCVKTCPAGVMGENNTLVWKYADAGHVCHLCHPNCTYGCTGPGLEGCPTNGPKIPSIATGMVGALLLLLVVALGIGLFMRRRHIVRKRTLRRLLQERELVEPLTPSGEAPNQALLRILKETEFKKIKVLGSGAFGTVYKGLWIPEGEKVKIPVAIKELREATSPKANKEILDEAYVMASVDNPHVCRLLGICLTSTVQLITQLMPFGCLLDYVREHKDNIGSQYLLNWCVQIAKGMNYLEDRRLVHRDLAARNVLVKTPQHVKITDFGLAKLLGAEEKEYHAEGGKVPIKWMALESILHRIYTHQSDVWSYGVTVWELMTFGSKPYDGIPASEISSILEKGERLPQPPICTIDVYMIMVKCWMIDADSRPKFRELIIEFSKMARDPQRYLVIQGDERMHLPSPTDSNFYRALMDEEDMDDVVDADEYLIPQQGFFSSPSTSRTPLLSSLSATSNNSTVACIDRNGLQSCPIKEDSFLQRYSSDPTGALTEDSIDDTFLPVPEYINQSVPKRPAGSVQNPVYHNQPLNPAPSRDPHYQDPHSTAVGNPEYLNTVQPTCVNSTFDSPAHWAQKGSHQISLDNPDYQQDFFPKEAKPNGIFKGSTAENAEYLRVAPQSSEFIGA
T3 sequence (Q06187 whole entry C481S): as the sequence (Q06187 whole entry) above, with C481S counted along it

In the case of `COc1ccc(F)cc1C(=O)NCc1ccc(-c2nn([C@H](C)C(F)(F)F)c(N)c2C(N)=O)cc1` (single isomer, unassigned) [Example 163b, 5-amino-3-[4-[[(5-fluoro-2-methoxy-benzoyl)amino]methyl]phenyl]-1-(2,2,2-trifluoro-1-methyl-ethyl)pyrazole-4-carboxamide], the IC50 in assay [1] was less than 0.01 µM; on Recombinant EGFR, 1 to 10 µM; in assay [2] (Homo sapiens, OCI-Ly10, 72 h) it was 0.01 to 0.1 µM; in assay [3] it was less than 0.01 µM.
On to `COc1ccccc1C(=O)NCc1ccc(-c2nn(C(C)CO)c(N)c2C(N)=O)cc1` (stereo not shown) [Example 135, 5-amino-1-(2-hydroxy-1-methyl-ethyl)-3-[4-[[(2-methoxybenzoyl)amino]methyl]phenyl]pyrazole-4-carboxamide], for which the IC50 in assay [1] was 0.01 to 0.1 µM; on Recombinant EGFR, more than 10 µM; in assay [2] (Homo sapiens, OCI-Ly10, 72 h) it was 1 to 10 µM; in assay [3] it was less than 0.01 µM.
As to `CCC(C)n1nc(-c2ccc(CNC(=O)c3ccccc3OC)cc2)c(C(N)=O)c1N` (stereo not shown) [Example 150, 5-amino-3-[4-[[(2-methoxybenzoyl)amino]methyl]phenyl]-1-sec-butyl-pyrazole-4-carboxamide], the IC50 in assay [1] was less than 0.01 µM; on Recombinant EGFR it was 1 to 10 µM; in assay [2] (Homo sapiens, OCI-Ly10, 72 h), 0.01 to 0.1 µM; in assay [3] it was less than 0.01 µM.
`COc1ccccc1C(=O)NCc1ccc(-c2nn(C3CCCC3)c(N)c2C(N)=O)cc1C` [Example 62, 5-amino-1-cyclopentyl-3-[4-[[(2-methoxybenzoyl)amino]methyl]-3-methyl-phenyl]pyrazole-4-carboxamide]: the IC50 in assay [1] is less than 0.01 µM; on Recombinant EGFR it was 0.1 to 1 µM; in assay [2] (Homo sapiens, OCI-Ly10, 72 h), 0.01 to 0.1 µM; in assay [3], less than 0.01 µM.
As for `CONC(=O)C1CCC(n2nc(-c3ccc(CNC(=O)c4ccccc4OC)cc3)c(C(N)=O)c2N)CC1` (mixture of isomers) [Example 75, 5-amino-3-[4-[[(2-methoxybenzoyl)amino]methyl]phenyl]-1-[4-(methoxycarbamoyl)cyclohexyl]pyrazole-4-carboxamide], the IC50 is less than 0.01 µM in assay [1]; 0.1 to 1 µM on Recombinant EGFR; 0.1 to 1 µM in assay [2] (Homo sapiens, OCI-Ly10, 72 h); less than 0.01 µM in assay [3].
On to `COc1ccc(F)cc1C(=O)NCc1ccc(-c2nn(C(C(C)(C)C)C(F)(F)F)c(N)c2C(N)=O)cc1` (stereo not shown) [Example 194, 5-amino-1-[2,2-dimethyl-1-(trifluoromethyl)propyl]-3-[4-[[(5-fluoro-2-methoxy-benzoyl)amino]methyl]phenyl]pyrazole-4-carboxamide], for which the IC50 lay within 0.01 to 0.1 µM in assay [1]; 1 to 10 µM on Recombinant EGFR; 0.1 to 1 µM in assay [2] (Homo sapiens, OCI-Ly10, 72 h); 0.01 to 0.1 µM in assay [3].
With `COc1ccc(F)cc1C(=O)NCc1ccc(-c2nn(C3CCOCC3)c(N)c2C(N)=O)cc1F` [Example 123, 5-amino-3-[3-fluoro-4-[[(5-fluoro-2-methoxy-benzoyl)amino]methyl]phenyl]-1-tetrahydropyran-4-yl-pyrazole-4-carboxamide], the IC50 in assay [1] was less than 0.01 µM; at Recombinant EGFR, 1 to 10 µM; in assay [2] (Homo sapiens, OCI-Ly10, 72 h) it was 0.1 to 1 µM; in assay [3], less than 0.01 µM.
As to `COc1ccccc1C(=O)NCc1cc(F)c(-c2nn(C3CCOCC3)c(N)c2C(N)=O)cc1F` [Example 148, 5-amino-3-[2,5-difluoro-4-[[(2-methoxybenzoyl)amino]methyl]phenyl]-1-tetrahydropyran-4-yl-pyrazole-4-carboxamide], the IC50 in assay [1] was 0.01 to 0.1 µM; at Recombinant EGFR, more than 10 µM; in assay [2] (Homo sapiens, OCI-Ly10, 72 h), 0.1 to 1 µM; in assay [3] it was less than 0.01 µM.
The matching figures for `COc1ccc(F)cc1C(=O)NCc1ccc(-c2nn(C3CCOC3)c(N)c2C(N)=O)c(F)c1F` (stereo not shown) [Example 182, 5-amino-3-[2,3-difluoro-4-[[(5-fluoro-2-methoxy-benzoyl)amino]methyl]phenyl]-1-tetrahydrofuran-3-yl-pyrazole-4-carboxamide]: 0.01 to 0.1 µM, 1 to 10 µM, 0.1 to 1 µM and less than 0.01 µM.
Consider `CCOC(=O)C1CCCC(n2nc(-c3ccc(CNC(=O)c4ccccc4OC)cc3)c(C(N)=O)c2N)C1` (single isomer, unassigned) [Example 58, ethyl 3-[5-amino-4-carbamoyl-3-[4-[[(2-methoxybenzoyl)amino]methyl]phenyl]pyrazol-1-yl]cyclohexanecarboxylate], for which the IC50 in assay [1] is less than 0.01 µM; at Recombinant EGFR it was 1 to 10 µM; in assay [2] (Homo sapiens, OCI-Ly10, 72 h) it was 0.01 to 0.1 µM; in assay [3] it was less than 0.01 µM.
Take `COc1ccc(F)cc1C(=O)NCc1ccc(-c2nn([C@H](C)C(F)(F)F)c(N)c2C(N)=O)cc1` (single isomer, unassigned) [Example 163a, 5-amino-3-[4-[[(5-fluoro-2-methoxy-benzoyl)amino]methyl]phenyl]-1-(2,2,2-trifluoro-1-methyl-ethyl)pyrazole-4-carboxamide]: the IC50 was less than 0.01 µM in assay [1], 1 to 10 µM on Recombinant EGFR, less than 0.01 µM in assay [2] and less than 0.01 µM in assay [3].
In the case of `COc1ccc(F)cc1C(=O)NCc1ccc(-c2nn(C(C)(C)C(F)(F)F)c(N)c2C(N)=O)cc1` [Example 189, 5-amino-3-[4-[[(5-fluoro-2-methoxy-benzoyl)amino]methyl]phenyl]-1-(2,2,2-trifluoro-1,1-dimethyl-ethyl)pyrazole-4-carboxamide], the IC50 in assay [1] is less than 0.01 µM; on Recombinant EGFR it was 1 to 10 µM; in assay [2] (Homo sapiens, OCI-Ly10, 72 h), 0.01 to 0.1 µM; in assay [3], less than 0.01 µM.
`COc1ccccc1C(=O)NCc1c(F)cc(-c2nn(C3CCCC3)c(N)c2C(N)=O)cc1F` [Example 138, 5-amino-1-cyclopentyl-3-[3,5-difluoro-4-[[(2-methoxybenzoyl)amino]methyl]phenyl]pyrazole-4-carboxamide]: the IC50 was 0.01 to 0.1 µM in assay [1]; more than 10 µM on Recombinant EGFR; 0.1 to 1 µM in assay [2] (Homo sapiens, OCI-Ly10, 72 h); 0.01 to 0.1 µM in assay [3].
Regarding `COc1ccc(F)cc1C(=O)NCc1ccc(-c2nn([C@H]3CCOC3)c(N)c2C(N)=O)cc1` [Example 162, 5-amino-3-[4-[[(5-fluoro-2-methoxy-benzoyl)amino]methyl]phenyl]-1-[(3S)-tetrahydrofuran-3-yl]pyrazole-4-carboxamide], the IC50 in assay [1] is less than 0.01 µM; on Recombinant EGFR it was 1 to 10 µM; in assay [2] (Homo sapiens, OCI-Ly10, 72 h), 0.01 to 0.1 µM; in assay [3] it was less than 0.01 µM.
For the compound `COc1ccc(F)cc1C(=O)NCc1ccc(-c2nn(C(C)C3CCOC3)c(N)c2C(N)=O)cc1` (mixture of isomers) [Example 172, 5-amino-3-[4-[[(5-fluoro-2-methoxy-benzoyl)amino]methyl]phenyl]-1-(1-tetrahydrofuran-3-ylethyl)pyrazole-4-carboxamide], the IC50 was less than 0.01 µM in assay [1]; 1 to 10 µM on Recombinant EGFR; 0.1 to 1 µM in assay [2] (Homo sapiens, OCI-Ly10, 72 h); less than 0.01 µM in assay [3].
As to `COc1ccc(F)cc1C(=O)NCc1ccc(-c2nn(C3CCCOC3)c(N)c2C(N)=O)cc1F` (stereo not shown) [Example 127, 5-amino-3-[3-fluoro-4-[[(5-fluoro-2-methoxy-benzoyl)amino]methyl]phenyl]-1-tetrahydropyran-3-yl-pyrazole-4-carboxamide], the IC50 in assay [1] is less than 0.01 µM; at Recombinant EGFR it was 1 to 10 µM; in assay [2] (Homo sapiens, OCI-Ly10, 72 h), 0.01 to 0.1 µM; in assay [3] it was less than 0.01 µM.

Values taken from US11826351B2, “Compounds useful as kinase inhibitors” (Loxo Oncology, Inc., priority 2015, dated 2023).
